Assay results from US10385050B2, “Indolin-2-one and 1,3-dihydro-pyrrolo[3,2-c]pyridin-2-one derivatives” (Hoffmann-La Roche Inc., priority 2014, dated 2019).
Counter-ions that a name gives are not always drawn.

How the values were obtained:
[1] = test system: behaviors of compound-treated mice; experiment: SmartCube behavioral signature and similarity analysis to atypical antipsychotics; format: in vivo, mouse; settings: 25 mg/kg i.p.; for SmartCube signature (class similarity): FIG. 1; for Similarity analysis: discrimination rate vs Clozapine / Similarity analysis: discrimination rate vs Olanzapine / Similarity analysis: discrimination rate vs Risperidone: rate of 0.70 or lower = similar, 0.5 = zero distinguishability
Description: In addition to the reversal of L-687,414 induced hyperlocomotion experiment as described above, some compounds of the present invention have been tested in SmartCube®, an automated system in which the behaviors of compound-treated mice in response to multiple challenges are captured by digital video and analyzed with computer algorithms (Roberds et al., Frontiers in Neuroscience, 2011, Vol. 5, Art. 103, 1-4). In this way, the neuro-pharmacological effects of a test compound can be predicted by similarity to major classes of compounds, such as antipsychotics, anxiolytics and antidepressants.
As mentioned above, some compounds have been tested in SmartCube®, an analytical system developed by PsychoGenics Inc.
SmartCube® was used to compare the behavioral signature of a test compound to a database of behavioral signatures obtained from a large set of clinically approved reference drugs, grouped per indications. In this way, the neuro-pharmacological effects of a test compound can be predicted by similarity to major classes of compounds, such as antipsychotics, anxiolytics and antidepressants. This approach is ideally suited to screen collections of existing drugs or drug candidates with previously unknown neuropharmacology, which could expedite the development of new and unexpected treatments for psychiatric disorders.
Some compounds of the present invention were injected i.p. at different doses 15 minutes before the test. At least 8 mice were used in each treatment group. Digital videos of the subjects were processed with computer vision algorithms to extract over 2000 dependent measures including frequency and duration of many different behavioral states. The results of the classifications are presented as bar charts for each compound and dose (mg/kg), the Y-axis indicates the relative probability that the test compound will show efficacy in the specific CNS indication.
Compounds of the present invention show similar signatures to those of atypical antipsychotics. An independent analysis was performed on the unclassified data to determine the similarity of the example compounds to active doses of known atypical antipsychotics. For this analysis, we use discrimination rate as the measure of separability between the two drugs, i.e. one drug's “distinguishability” from another. A rate equal to 50% (or 0.5) corresponds to zero distinguishability. […] In most cases, the example compounds show a similarity to risperidone, clozapine and olanzapine with a discrimination rate of ≤0.70.

[2] = test system: L-687,414-induced hyperlocomotion; experiment: Reversal of L-687,414-induced hyperlocomotion (Digiscan locomotor activity); format: in vivo, mouse; settings: for ID50 po: dose producing 50% inhibition of L-687,414-induced hyperlocomotion, p.o. 15 min before s.c. 50 mg/kg L-687,414, doses 1-3-10 (Expl. 2: 3-10-30) mg/kg; for inhibition in vivo at 30 mg/kg: Mus musculus, 0.5 h, dose ip 30 mg/kg at the same time as s.c. 50 mg/kg L-687,414, horizontal activity over 30 min
Description: The authors described that hyperlocomotion induced by L-687,414 was inhibited by a series of known antipsychotic drugs. […] These findings predict antipsychotic activity for the present compounds, making them useful for the treatment of positive (psychosis) and negative symptoms of schizophrenia, substance abuse, alcohol and drug addiction, obsessive-compulsive disorders, cognitive impairment, bipolar disorders, mood disorders, major depression, resistant depression, anxiety disorders, Alzheimer's disease, autism, Parkinson's disease, chronic pain, borderline personality disorder, sleep disturbances, chronic fatigue syndrome, stiffness, antiinflammatory effects in arthritis and balance problems.
The described compounds of formula I reduce L-687,414-induced hyperlocomotion. This was assessed by using a computerized Digiscan 16 Animal Activity Monitoring System (Omnitech Electronics, Columbus, Ohio) to quantify locomotor activity. Animals were kept under a 12 h light/dark cycle and experiments were performed during the light period. Each activity monitoring chamber consisted of a Plexiglas box (41×41×28 cm; W×L×H) with sawdust bedding on the floor surrounded by invisible horizontal and vertical infrared sensor beams. The test boxes were divided by a Plexiglas cross providing each mouse with 20×20 cm of moving space. Cages were connected to a Digiscan Analyzer linked to a computer that constantly collected the beam status information. Records of photocell beam interruptions for individual animals were taken every 5 min over the duration of the experimental session and the sum of the first 6 periods was used as the final parameter. Compounds were administered either p.o. 15 min before a s.c. injection of 50 mg/kg of L-687,414, or i.p. at the same time as a s.c. injection of 50 mg/kg of L-687,414. Mice were then transferred from their home cage to the recording chambers for a 15-min habituation phase allowing free exploration of the new environment. Horizontal activity was then recorded for a 30-min time period. The % inhibition of L-687,414-induced hyperlocomotion was calculated according to the equation: ((Veh+L-687,414 horizontal activity−drug+L-687,414 horizontal activity)/Veh+L−687,414 horizontal activity)×100
ID50 values, defined as doses of each compound producing 50% inhibition of L-687,414-induced hyperlocomotion, were calculated by linear regression analysis of a dose-response data using an Excel-based computer-fitting program.
As data was not presupposed to be normally distributed, groups treated with test compounds were statistically compared with the control (vehicle-treated) group using one-tailed Mann Whitney U tests. In statistics, the Mann-Whitney U test (also called the Mann-Whitney-Wilcoxon (MWW) or Wilcoxon rank-sum test) is a non-parametric statistical hypothesis test for assessing whether one of two samples of independent observations tends to have larger values than the other. It is one of the most well-known non-parametric significance tests. […] P values given in table 1 are one-tailed since only decreases in locomotion were expected and tested for (Mann, H. B., Whitney, D. R. (1947), “On a Test of Whether one of Two Random Variables is Stochastically Larger than the Other”, Annals of Mathematical Statistics, 18 (1), 50-60).

## Cc1cc(-c2ncc(-c3ccc4c(c3)NC(=O)C4(C)C)o2)ccn1 [Example 35, 3,3-Dimethyl-6-(2-(2-methylpyridin-4-yl)oxazol-5-yl)indolin-2-one]
[1]
  SmartCube signature (class similarity): similarity to atypical antipsychotics
  Similarity analysis: discrimination rate vs Clozapine: 0.69
  Similarity analysis: discrimination rate vs Olanzapine: 0.75
  Similarity analysis: discrimination rate vs Risperidone: 0.60
[2]
  ID50 po: 5.82 mg/kg

## CC1(C)C(=O)Nc2cc(-n3cnc(-c4ccncc4)c3)ccc21 [Example 47, 3,3-Dimethyl-6-(4-(pyridin-4-yl)-1H-imidazol-1-yl)indolin-2-one]
[1]
  SmartCube signature (class similarity): similarity to atypical antipsychotics
  Similarity analysis: discrimination rate vs Clozapine: 0.70
  Similarity analysis: discrimination rate vs Olanzapine: 0.68
  Similarity analysis: discrimination rate vs Risperidone: 0.64

## Cc1cc(-n2cnc(-c3ccc4c(c3)N(C)C(=O)C4(C)C)c2)ccn1 [Example 62, 1,3,3-Trimethyl-6-(1-(2-methylpyridin-4-yl)-1H-imidazol-4-yl)indolin-2-one]
[1]
  SmartCube signature (class similarity): similarity to atypical antipsychotics
  Similarity analysis: discrimination rate vs Clozapine: 0.59
  Similarity analysis: discrimination rate vs Olanzapine: 0.62
  Similarity analysis: discrimination rate vs Risperidone: 0.58
[2]
  ID50 po: 8.8 mg/kg

## CC1(C)C(=O)Nc2cc(-c3cn(-c4cccnc4)cn3)ccc21 [Example 93, 3,3-Dimethyl-6-(1-(pyridin-3-yl)-1H-imidazol-4-yl)indolin-2-one]
[1]
  SmartCube signature (class similarity): similarity to atypical antipsychotics
  Similarity analysis: discrimination rate vs Clozapine: 0.63
  Similarity analysis: discrimination rate vs Olanzapine: 0.68
  Similarity analysis: discrimination rate vs Risperidone: 0.60

## Cc1ccc(-c2ncc(-c3ccc4c(c3)N(C)C(=O)C4(C)C)cn2)cn1 [Example 101, 1,3,3-Trimethyl-6-(2-(6-methylpyridin-3-yl)pyrimidin-5-yl)indolin-2-one]
[2]
  inhibition in vivo at 30 mg/kg: 78.4%

## Cc1ccc(N2C(=O)C(C)(C)c3ccc(-c4cn(-c5ccncc5F)cn4)cc32)cn1 [Example 102, 6-[1-(3-Fluoro-4-pyridyl)imidazol-4-yl]-3,3-dimethyl-1-(6-methyl-3-pyridyl)indolin-2-one]
[2]
  inhibition in vivo at 30 mg/kg: 65.6%

## Cc1ccc(N2C(=O)C(C)(C)c3ccc(-c4cn(-c5ccnc(C)c5)cn4)cc32)cn1 [Example 104, 3,3-Dimethyl-1-(6-methyl-3-pyridyl)-6-[1-(2-methyl-4-pyridyl)imidazol-4-yl]indolin-2-one]
[2]
  inhibition in vivo at 30 mg/kg: 64.8%

## Cc1ccc(N2C(=O)C(C)(C)c3ccc(-c4cn(-c5ccncc5C)cn4)cc32)cn1 [Example 105, 3,3-Dimethyl-1-(6-methyl-3-pyridyl)-6-[1-(3-methyl-4-pyridyl)imidazol-4-yl]indolin-2-one]
[2]
  inhibition in vivo at 30 mg/kg: 40.6%

## Cc1cc(N2C(=O)C(C)(C)c3ccc(-c4cn(-c5ccncc5C)cn4)cc32)ccn1 [Example 106, 3,3-Dimethyl-1-(2-methyl-4-pyridyl)-6-[1-(3-methyl-4-pyridyl)imidazol-4-yl]indolin-2-one]
[2]
  inhibition in vivo at 30 mg/kg: 68.4%

## Cc1cc(-n2cnc(-c3ccc4c(c3)N(c3cn(C)cn3)C(=O)C4(C)C)c2)ccn1 [Example 111, 3,3-Dimethyl-1-(1-methylimidazol-4-yl)-6-[1-(2-methyl-4-pyridyl)imidazol-4-yl]indolin-2-one]
[2]
  inhibition in vivo at 30 mg/kg: 55.1%

## Cc1cc(-n2cnc(-c3ccc4c(c3)N(c3ccn(C)n3)C(=O)C4(C)C)c2)ccn1 [Example 112, 3,3-Dimethyl-1-(1-methylpyrazol-3-yl)-6-[1-(2-methyl-4-pyridyl)imidazol-4-yl]indolin-2-one]
[2]
  inhibition in vivo at 30 mg/kg: 52.5%

## Cc1cnccc1-n1cnc(-c2ccc3c(c2)N(c2cn(C)cn2)C(=O)C3(C)C)c1 [Example 114, 3,3-Dimethyl-1-(1-methylimidazol-4-yl)-6-[1-(3-methyl-4-pyridyl)imidazol-4-yl]indolin-2-one]
[2]
  inhibition in vivo at 30 mg/kg: 64.9%

## Cc1cnccc1-n1cnc(-c2ccc3c(c2)N(c2ccn(C)n2)C(=O)C3(C)C)c1 [Example 115, 3,3-Dimethyl-1-(1-methylpyrazol-3-yl)-6-[1-(3-methyl-4-pyridyl)imidazol-4-yl]indolin-2-one]
[2]
  inhibition in vivo at 30 mg/kg: 74.1%

## Cc1ncc(N2C(=O)C(C)(C)c3ccc(-c4cn(-c5ccncc5C)cn4)cc32)cn1 [Example 116, 3,3-Dimethyl-6-[1-(3-methyl-4-pyridyl)imidazol-4-yl]-1-(2-methylpyrimidin-5-yl)indolin-2-one]
[2]
  inhibition in vivo at 30 mg/kg: 74.3%

## Cc1cnc(-n2cnc(-c3ccc4c(c3)N(C3CC3)C(=O)C4(C)C)c2)nc1 [Example 118, 1-Cyclopropyl-3,3-dimethyl-6-(1-(5-methylpyrimidin-2-yl)-1H-imidazol-4-yl)indolin-2-one]
[2]
  inhibition in vivo at 30 mg/kg: 50.3%

## Cc1cnc(-n2cnc(-c3ccc4c(c3)N(C)C(=O)C4(C)C)c2)nc1 [Example 119, 1,3,3-Trimethyl-6-(1-(5-methylpyrimidin-2-yl)-1H-imidazol-4-yl)indolin-2-one]
[2]
  inhibition in vivo at 30 mg/kg: 48.1%

## Cc1cccc(-n2cnc(-c3ccc4c(c3)NC(=O)C4(C)C)c2)n1 [Example 123, 3,3-Dimethyl-6-(1-(6-methylpyridin-2-yl)-1H-imidazol-4-yl)indolin-2-one]
[2]
  inhibition in vivo at 30 mg/kg: 30.6%

## CC1(C)C(=O)N(CCO)c2cc(-c3cn(-c4ccncc4F)cn3)ccc21 [Example 130, 6-[1-(3-Fluoro-4-pyridyl)imidazol-4-yl]-1-(2-hydroxyethyl)-3,3-dimethyl-indolin-2-one]
[2]
  inhibition in vivo at 30 mg/kg: 74.5%

## Cc1cc(-n2cnc(-c3ccc4c(c3)NC(=O)C4(C)C)c2)c(F)cn1 [Example 132, 6-[1-(5-Fluoro-2-methyl-4-pyridyl)imidazol-4-yl]-3,3-dimethyl-indolin-2-one trifluoroacetate]
[2]
  inhibition in vivo at 30 mg/kg: 71.1%
